# Key:
# [1] = system: rat LNC; assay: Cytokine generation (ELISA) in ConA-stimulated rat LNC; format: cell-based; conditions: 24 hours, vs untreated control cells
# Text: (§1) Experimental animals (C57BL/6 mice, BALB/c mice and Dark Agouti rats) were obtained from the Animal House Facility of the Institute for Biological Research “Sinisa Stanković”, Belgrade, Serbia. Spleen cells (SPC) were isolated from murine spleens and lymph node cells (LNC) were obtained from rat cervical lymph nodes of untreated animals. Draining lymph node cells (DLNC) were obtained from popliteal lymph nodes 8-10 days after immunization of rats with myelin basic protein (guinea pig MBP, kind gift from professor Alexander Fluegel, University of Goettingen, Germany) and complete Freund's adjuvant (CFA, Difco, Detroit, Mich.). […] Obtained purity of CD4 population was more than 97% as determined by flow cytometry. […]
# Cytokine concentration in cell culture supernatants was determined by sandwich ELISA using MaxiSorp plates (Nunc, Rochild, Denmark) and anti-cytokine paired antibodies according to the manufacturer's instructions. Samples were analyzed in duplicate for murine/rat IL-17, murine IL-10, murine TNF, murine IL-4 (eBioscience), murine IFN-γ, rat IFN-γ, rat IL-4 (R&D, Minneapolis, Minn.), rat IL-10 and rat TNF (BD Biosciences). The results were calculated using standard curves made on the basis of known concentrations of the appropriate recombinant cytokines. […]
# [2] = system: murine SPC; assay: Viability of murine SPC (MTT mitochondrial activity assay); format: cell-based, mouse; conditions: minor compared with the influence on cytokines
# Text: Experimental animals (C57BL/6 mice, BALB/c mice and Dark Agouti rats) were obtained from the Animal House Facility of the Institute for Biological Research “Sinisa Stanković”, Belgrade, Serbia. Spleen cells (SPC) were isolated from murine spleens and lymph node cells (LNC) were obtained from rat cervical lymph nodes of untreated animals. Draining lymph node cells (DLNC) were obtained from popliteal lymph nodes 8-10 days after immunization of rats with myelin basic protein (guinea pig MBP, kind gift from professor Alexander Fluegel, University of Goettingen, Germany) and complete Freund's adjuvant (CFA, Difco, Detroit, Mich.). The organs were mechanically disrupted, passed through 40-μm nylon mesh filter and the resulting suspension was collected by centrifugation. Red blood cells from single cell suspensions obtained from spleens were lysed using RBC Lysis Buffer (eBioscience, San Diego, Calif.). […] Obtained purity of CD4 population was more than 97% as determined by flow cytometry. […]
# In order to assess the viability of SPC, LNC, DLNC and SCC by mitochondrial activity assay we used the mitochondrial-dependent reduction of 3-(4,5-dimethylthiazol-2-yl)-2,5-[…] bromide (MTT) to formazan. […] The absorbances in MTT assay were measured at […], with a correction at 690 nm, using an automated microplate reader (LKB 5060-006, LKB, Vienna, Austria).
# [3] = system: SCC; assay: IFN-g and IL-17 release from rat spinal cord infiltrating cells (SCC); format: cell-based; conditions: unstimulated SCC isolated at the peak of EAE
# Text: as §1
# Cytokine concentration in cell culture supernatants was determined by sandwich ELISA using MaxiSorp plates (Nunc, Rochild, Denmark) and anti-cytokine paired antibodies according to the manufacturer's instructions. Samples were analyzed in duplicate for murine/rat IL-17, murine IL-10, murine TNF, murine IL-4 (eBioscience), murine IFN-γ, rat IFN-γ, rat IL-4 (R&D, Minneapolis, Minn.), rat IL-10 and rat TNF (BD Biosciences). The results were calculated using standard curves made on the basis of known concentrations of the appropriate recombinant cytokines.
# Next, we determined the influence of Saq-NO on encephalitogen-specific generation of IFN-g and IL-17. […]
# [4] = system: experimental autoimmune uveoretinitis (EAU); assay: Experimental autoimmune uveoretinitis (EAU) in the Wistar rat, histology; format: in vivo
# Method: Female Wistar Rats n=28 (8 weeks-old) were purchased from Pasteur Institute (Algiers, Algeria). These rats were acclimated to their new environment for one week before the start of experiments and kept under normal conditions with a 12 h dark/light cycle and free access to food and water.
# These animals were divided into four groups:
# Control group (n=6) it consisted in non treated animals
# Vehicle group (n=6) received a daily intraperitoneal injection of DMSO at 20% starting from the day of immunization.
# Retinal crude extract immunized rats (referred to as EAU group n=8) received a single subcutaneous injection of 200 μL with Retinal Crude Extract emulsified in complete Freund's adjuvant; CFA (v/v) and were left untreated.
# SaqNO (reference) treated rats (n=8) they received a daily intraperitoneal injection of SaqNO at 10 μg/kg starting from the day of immunization.
# Fresh bovine eyes (n=20) were used in the experiments. They were cut just in posterior to the ora serrata, the vitreous was then removed without causing retinal detachment. The retinas were removed carefully and put in PBS, pH 7.4. They were then subjected to three successive thermal shock (−20° C. and +37°) in order to release retinal antigens. The retinal crude extract was obtained after a centrifugation at 4000 rpm for 15 min and conserved at −20° C. until further utilization.
# […]. In parallel, all rats from each group were also sacrificed.
# For histopathological analysis, eyes were enucleated from each group and fixed in 10% phosphate-buffered formaldehyde. Tissue sections of 5 μm thickness were stained with hematoxylin and eosin (H&E). Sections were examined using a standard microscope (Zeiss) and pictures were taken using a digital camera at ×40 resolution Histological criteria were based on the degree of architectural changes. The histological scores were assessed semi-quantitatively by microscopic examination as follows:
# No morphological changes, 0; minimal morphological changes of the outer nuclear layer (ONL) in retina, 1; atrophy of INL, 2; disappearance of INL, 3; and damage of total retinal layers, 4.
# [5] = mice subjected to the treatment; cited from earlier work
# [6] = system: melanoma, astrocytoma, prostate cancer cells and various human multidrug resistant tumor cell lines; conditions: cited from earlier work
compound,measurement,setting,value
"CC(C)(C)NC(=O)C1C[C@@H]2CCCC[C@@H]2CN1CC(O[N+](=O)[O-])[C@H](Cc1ccccc1)NC(=O)C(CC(N)=O)NC(=O)c1ccc2ccccc2n1 (stereo partly drawn) [Saq-NO, nitric ester of Saquinavir]","Release of the examined cytokines IFN-g, IL-17, IL-10 and TNF",[1],dose-dependently inhibited
same,SPC viability,[2],statistically significantly inhibited
same,IFN-g and IL-17 release,[3],potently inhibited
same,Uveitis clinical score,"[4]; 10 μg/kg daily, P<0.05",improved significantly
same,Histological structure of retinal tissue,"[4]; 10 μg/kg i.p. daily from immunization, day 14",ameliorated significantly
same,Histopathological scores,"[4]; 10 μg/kg, P<0.05",ameliorated
same,Development of EAU,[4]; prophylactic treatment,prevents development of EAU
same,Toxicity in mice,[5],no toxicity
same,Anti-cancer properties in comparison to Saq,[6],superior

# — patent publication US20150283127A1, “SAQUINAVIR-NO FOR IMMUNOMODULATION” (ONCONOX APS, priority 2012, published 2015)
